Source: patent US10774053B2, “HIV protease inhibitors” (Gilead Sciences, Inc., priority 2017, dated 2020)

Tests used:
[1] = tested on: HIV-1 (IIIB) in MT-4 cells; assay: microbe, parasite or virus in culture; assay type: cell-based; details: Human immunodeficiency virus 1, IIIB, MT4, MT-4 cells, HIV-1; read-out: MT4 EC50
[2] = Liver microsomal stability, human liver microsomes; details: human, liver microsomes
Description: Liver Microsomal Stability Protocol
Test compounds and one control compound (verapamil) were tested in 3 different species in duplicate sets.
Test compound concentration: 1 uM; Protein concentration: 0.5 mg/mL (for dog, rat, and human liver microsomes); Cofactor: NADPH-Regenerating system (NRS) solution; Time-points: 2, 12, 25, 45, and 65 minutes.
Reaction Composition (in Each Incubation Well) Contains:
At an incubation temperature of 37° C., the reaction was started with addition of NADPH Regeneration System, at each time point, 25 uL of the reaction mixture was removed and added to a plate with 225 uL quenching solution (50% MeOH, 25% ACN, 25% H2O, and 200 nM labetalol as internal standard). After plates were vortexed, they were centrifuged for 30 minutes to remove proteins. About 100 μL supernatant was removed to a new plate and diluted with 150 μL water. About 20 μL of the mixture was injected into LC/MS/MS system to monitor the compound's response. In vitro measured t1/2 was used to calculate Clint values.

Row | SMILES | EC50 [1] [nM] | half-life at 1 uM [2] [h]
1 | CC(C)(C)C[C@]1(c2ccc3nc(C#Cc4ccccc4)ccc3c2)NC(=N)N([C@H](COC(=O)NC2(C(F)(F)F)CC2)c2ccc(Cl)c(-n3ncnc3C(F)F)c2)C1=O (stereo in doubt) [Compound 360] | 79.9 | ≥ 6.58
2 | CC(C)(C[C@]1(c2ccc(-c3cnn(C4CC4)c3)cc2)NC(=N)N([C@H](COC(=O)NC2(C(F)(F)F)CC2)c2ccc(Cl)c(-c3ncnn3C(F)F)c2)C1=O)C(F)(F)F [Compound 135] | 13.6 | ≥ 6.58
3 | CC(C)(C)C[C@]1(c2ccc(-c3cccc(S(C)(=O)=O)c3)c(F)c2)NC(=N)N([C@H](COC(=O)NC2(C(F)(F)F)CC2)c2ccc(Cl)c(-n3ncnc3C(F)F)c2)C1=O [Compound 312] | 27.8 | ≥ 6.58
4 | CC(C[C@]1(c2ccc(-c3cnn(C(F)F)c3)cc2)NC(=N)N([C@H](COC(=O)NC2(C(F)(F)F)CC2)c2ccc(Cl)c(-n3ncnc3C(F)F)c2)C1=O)CS(C)(=O)=O (stereo partly drawn) [Compound 345] | 134 | ≥ 6.58
5 | CC(C)(C)C[C@]1(c2ccc(-c3cnn(C(F)F)c3)cc2F)NC(=N)N([C@H](COC(=O)NC2(C(F)(F)F)CC2)c2ccc(Cl)c(-c3ncn[nH]3)c2)C1=O [Compound 110] | 96 | ≥ 6.58
6 | CC(C)(C)C[C@]1(c2ccc(-c3cnn(C(F)F)c3)cc2)NC(=N)N([C@H](COC(=O)NC2CC2)c2ccc(Cl)c(-c3nccc(=O)[nH]3)c2)[C@H]1O [Compound 17] | 556 | ≥ 6.58
7 | CC(C)(C)C[C@]1(c2ccc(-c3cnn(C4CC4)c3)cc2Cl)NC(=N)N([C@H](COC(=O)NC2(C(F)(F)F)CC2)c2ccc(Cl)c(-n3ncnc3C(F)F)c2)C1=O [Compound 317] | 99.1 | ≥ 6.58
8 | CC(C)(C)C[C@]1(c2ccc3nc(-c4cnn(C(F)F)c4)ccc3c2)NC(=N)N([C@H](COC(=O)NC2(C(F)(F)F)CC2)c2ccc(Cl)c(-n3ncnc3C(F)F)c2)C1=O [Compound 350] | 8.9 | ≥ 6.58
9 | CC(C)(C)C[C@]1(c2ccc(-c3cnn(C(F)F)c3)cc2)NC(=N)N([C@H](COC(=O)N[C@@H]2CC2C(F)(F)F)c2ccc(Cl)c(-n3ncnc3C(F)F)c2)C1=O (single isomer, unassigned) [Compound 331] | 16.4 | ≥ 6.58
10 | [2H]C([2H])([2H])n1cnc(-c2cc([C@@H](COC(=O)NC(C)(C)C(F)F)N3C(=N)N[C@](C[C@]4(C)CC4(F)F)(c4ccc(-c5cnn(C(F)F)c5)cc4)C3=O)ccc2Cl)n1 [Compound 97] | 18.9 | ≥ 6.58
11 | CC(C)(C)C[C@]1(c2ccc(-c3cnn(C(F)F)c3)cc2)NC(=N)N([C@H](COC(=O)NC(C)(C)C(F)(F)F)c2ccc(Cl)c(-n3ncnc3C(F)F)c2)C1=O [Compound 182] | 12 | ≥ 6.58
12 | CC(C)(C)C[C@]1(c2ccc(-c3ncccn3)cc2)NC(=N)N([C@H](COC(=O)NC2(C(F)(F)F)CC2)c2ccc(Cl)c(-c3ncn[nH]3)c2)C1=O [Compound 105] | 36.7 | ≥ 6.58
13 | C[C@H](C(=O)NC[C@H](c1ccc(Cl)c(-n2ncnc2C(F)F)c1)N1C(=N)N[C@](CC(C)(C)C)(c2ccc(-c3cnn(C4CC4)n3)cc2)C1=O)C(F)(F)F [Compound 385] | 12.8 | –
14 | CC(C)(C)C[C@]1(c2ccc(-c3ccc(OC(F)F)cc3)cc2)NC(=N)N([C@H](COC(=O)NC2(C(F)(F)F)CC2)c2ccc(Cl)c(-n3ncnc3C(F)F)c2)C1=O [Compound 282] | 62 | –
15 | CC(C)(C)C[C@]1(c2ccc(-c3ncccn3)cc2)NC(=N)N([C@H](COC(=O)NC(C)(C)C(F)F)c2ccc(Cl)c(-n3ncnc3C(F)F)c2)C1=O [Compound 188] | 9.9 | –
16 | C[C@@H](NC(=O)OC[C@H](c1ccc(Cl)c(-n2ncnc2C(F)F)c1)N1C(=N)N[C@](CC(C)(C)C)(c2ccc(-c3cnn(C(F)F)c3)cc2)C1=O)C(F)(F)F [Compound 310] | 20.3 | –
17 | CC(C)(C)C[C@]1(c2ccc(-c3cnn(C(F)F)c3)cc2)NC(=N)N([C@H](COC(=O)NC2(C)CC2)c2ccc(Cl)c(-n3ncnc3C(F)F)c2)C1=O [Compound 178] | 9.99 | –
18 | C[C@@H](C(=O)NC[C@H](c1ccc(Cl)c(-n2ncnc2C(F)F)c1)N1C(=N)N[C@](CC(C)(C)C(F)(F)F)(c2ccc(-c3cnn(C4CC4)n3)cc2)C1=O)C(F)(F)F [Compound 390] | 20.9 | –
19 | C[C@H](NC(=O)OC[C@H](c1ccc(Cl)c(-n2ncnc2C(F)F)c1)N1C(=N)N[C@](CC(C)(C)C)(c2ccc(-c3cnn(C4CC4)c3)c(F)c2)C1=O)C(F)(F)F [Compound 314] | 8.19 | –
20 | CC(C)(C)C[C@]1(c2ccc(-c3cnn(C4CC4)c3)cc2)NC(=N)N([C@H](COC(=O)NC2(C(F)(F)F)CC2)c2ccc(Cl)c(-n3ncnc3C(F)F)c2)C1=O [Compound 207] | 13.9 | –
21 | CC(C)(C)C[C@]1(c2ccc(-c3cnn(C(F)F)c3)cc2)NC(=N)N([C@H](COC(=O)N2CC3(CCO3)C2)c2ccc(Cl)c(-c3ncn[nH]3)c2)C1=O [Compound 92] | 113 | –

Row | SMILES | EC50 [1] [nM] | half-life at 1 uM [2] [h]
22 | CC(C)(C)C[C@]1(c2ccc(-c3ncccn3)cc2)NC(=N)N([C@H](COC(=O)NC2(C(F)(F)F)CC2)c2ccc(Cl)c(-n3ncnc3C(F)F)c2)C1=O [Compound 187] | 11.6 | –
23 | Cc1nnc(-c2cc([C@@H](COC(=O)NC3CC3)N3C(=N)N[C@](CC(C)(C)C)(c4ccc(-c5cnn(C(F)F)c5)cc4)C3=O)ccc2Cl)[nH]1 [Compound 40] | 84.1 | –
24 | [H]/N=C1\N[C@](CC(C)(C)C)(c2ccc(-c3cnn(C(F)F)c3)cc2)C(=O)N1[C@H](COC(=O)NC1CC1)c1ccc(Cl)c(-c2nncs2)c1 [Compound 39] | 29.8 | –
25 | CC(C)(C)C[C@]1(c2ccc(-c3cnn(C(F)F)c3)cc2)NC(=N)N([C@H](COC(=O)NC2(C)CC2)c2ccc(Cl)c(-n3cc(C4CC4)cn3)c2)C1=O [Compound 264] | 228 | –
26 | CC(C)(C)C[C@]1(c2ccc(-c3cnn(C(F)F)c3)cc2)NC(=N)N([C@H](COC(=O)N2CC3(CC3)C2)c2ccc(Cl)c(-c3ncn[nH]3)c2)C1=O [Compound 87] | 38.5 | –
27 | CC(C)(C)C[C@]1(c2ccc(-c3cnn(C(F)F)c3)cc2)NC(=N)N([C@H](COC(=O)NC2(C(F)(F)F)CC2)c2ccc(Cl)c(-n3ncnc3C3CC3)c2)C1=O [Compound 253] | 28.1 | –
28 | N=C1N[C@](C#CC2CC2)(c2ccc(-c3cnn(C(F)F)c3)cc2)C(=O)N1[C@H](COC(=O)NC1(C(F)(F)F)CC1)c1ccc(Cl)c(-n2cccn2)c1 [Compound 267] | 243 | –
29 | Cc1ncnn1-c1cc([C@@H](COC(=O)NC2(C)CC2)N2C(=N)N[C@](CC(C)(C)C)(c3ccc(-c4cnn(C(F)F)c4)cc3)C2=O)ccc1Cl [Compound 247] | 7.51 | –
30 | CN(C)C(=O)OC[C@H](c1ccc(Cl)c(-c2ncc(-c3ccccc3)o2)c1)N1C(=N)N[C@@](c2cc(F)cc(F)c2)(C2CC2)C1=O [Compound 4] | 3620 | –
31 | CC(C)(C)C[C@]1(c2ccc(-c3cnn(C(F)F)c3)c(F)c2)NC(=N)N([C@H](COC(=O)NCC(C)(F)F)c2ccc(Cl)c(-n3ncnc3C(F)F)c2)C1=O [Compound 299] | 13 | –
32 | CC(C)(C)C[C@]1(c2ccc(-c3ccns3)cc2)NC(=N)N([C@H](COC(=O)NC2(C(F)(F)F)CC2)c2ccc(Cl)c(-n3cncn3)c2)C1=O [Compound 321] | 20.8 | –
33 | CC(C)(C)C[C@]1(c2ccc(-c3cnn(S(C)(=O)=O)c3)cc2)NC(=N)N([C@H](COC(=O)NC2(C(F)(F)F)CC2)c2ccc(Cl)c(-n3ncnc3C(F)F)c2)C1=O [Compound 292] | 14.2 | –
34 | CC(C)(C)C[C@]1(c2ccc(-c3cnn(C4CC4)n3)cc2)NC(=N)N([C@H](CNC(=O)CC2CC2)c2ccc(Cl)c(-n3ncnc3C(F)F)c2)C1=O [Compound 384] | 18 | –
35 | COc1ccc([C@@]2(CC(C)(C)C)NC(=N)N([C@H](COC(=O)NC3(C(F)(F)F)CC3)c3ccc(Cl)c(-n4ncnc4C(F)F)c3)C2=O)c(F)c1F [Compound 228] | 14.3 | –
36 | CC(C)(C[C@]1(c2ccc(-c3cnn(C4CC4)n3)cc2)NC(=N)N([C@H](COC(=O)NC2(C(F)(F)F)CC2)c2ccc(Cl)c(-c3ncnn3C3CC3)c2)C1=O)C(F)(F)F [Compound 159] | 10.9 | –
37 | CC(C)(C)C[C@]1(c2ccc(-c3ccccn3)cc2)NC(=N)N([C@H](COC(=O)NC2(C(F)(F)F)CC2)c2cc(F)c(Cl)c(-n3ncnc3C(F)F)c2)C1=O [Compound 193] | 88.3 | –
38 | CC(C)(C)C[C@]1(c2ccc(-c3cnn(C(F)F)c3)cc2)NC(=N)N([C@H](COC(=O)NC2(C)CC2)c2ccc(Cl)c(-n3cc(C#N)cn3)c2)C1=O [Compound 265] | 17.9 | –
39 | CC(C)(C)C[C@]1(c2ccc(-c3ccccn3)cc2)NC(=N)N([C@H](COC(=O)NC2(C(F)(F)F)CC2)c2ccc(Cl)c(-n3ncnc3C(F)F)c2)C1=O [Compound 190] | 22.6 | –
40 | Cn1cc(-c2cc([C@@H](COC(=O)NC3CC3)N3C(=N)N[C@](CC(C)(C)C)(c4ccc(-c5cnn(C(F)F)c5)cc4)C3=O)ccc2Cl)nn1 [Compound 41] | 18.1 | –
41 | CC(C)(C)C[C@]1(c2ccc(-c3cnn(C(F)F)c3)cc2)NC(=N)N([C@H](CO)c2ccc(Cl)c(-c3ncnn3C3CC3)c2)C1=O [Compound 46] | 37.6 | –
42 | C[C@H](CC#N)C[C@]1(c2ccc(-c3cnn(C(F)F)c3)cc2)NC(=N)N([C@H](COC(=O)NC2(C(F)(F)F)CC2)c2ccc(Cl)c(-n3ncnc3C(F)F)c2)C1=O (single isomer, unassigned) [Compound 347] | 32 | –
